Test: Pharmacokinetic parameters after oral gavage in Sprague Dawley rats
Type: in vivo, male Sprague Dawley rats
Details: rat, 10 mg/kg
Protocol: The in vivo pharmacokinetic parameters of mesoporous silica (AMS-6) loaded with probucol (34.8 wt %) prepared according to the procedure as described in Example 1, were obtained after oral gavage to male Sprague Dawley rats at a dose of 10 mg/kg. Crystalline probucol (PB) was administered in comparison. […] Further, the maximum concentration of probucol after administration of silica loaded with probucol is approximately 10 times higher than when crystalline probucol is administered.

AUC(0-inf) (male, Sprague Dawley, plasma): 859 ng·h/mL
Cmax (male, Sprague Dawley, plasma): 30.9 ng/mL
Tmax (male, Sprague Dawley, plasma): 8 h
half-life (male, Sprague Dawley, plasma): 1180 min
AUC(0-t) (male, Sprague Dawley, plasma, read-out: AUC0-24): 492 ng·h/mL
Tlast: 24 h
Compound: CC(C)(Sc1cc(C(C)(C)C)c(O)c(C(C)(C)C)c1)Sc1cc(C(C)(C)C)c(O)c(C(C)(C)C)c1 [PB, Probucol]
